Data as given in patent publication US20030180777A1, “Rapid identification of transcriptional regulatory domains” (priority 2002, published 2003).

What was measured:
Type in all cases: cell-based
P2X7 [1] = target: T1, P2X7 (Mus musculus, UniProt Q9Z1M0); assay: BzATP-induced EtBr uptake in Neuro-2A cells by FACS
T1 construct: mouse Neuro-2A cells (expressing P2X7); endogenous in cells; host or cells: mouse Neuro-2A cells
T1 sequence (Q9Z1M0 1-595): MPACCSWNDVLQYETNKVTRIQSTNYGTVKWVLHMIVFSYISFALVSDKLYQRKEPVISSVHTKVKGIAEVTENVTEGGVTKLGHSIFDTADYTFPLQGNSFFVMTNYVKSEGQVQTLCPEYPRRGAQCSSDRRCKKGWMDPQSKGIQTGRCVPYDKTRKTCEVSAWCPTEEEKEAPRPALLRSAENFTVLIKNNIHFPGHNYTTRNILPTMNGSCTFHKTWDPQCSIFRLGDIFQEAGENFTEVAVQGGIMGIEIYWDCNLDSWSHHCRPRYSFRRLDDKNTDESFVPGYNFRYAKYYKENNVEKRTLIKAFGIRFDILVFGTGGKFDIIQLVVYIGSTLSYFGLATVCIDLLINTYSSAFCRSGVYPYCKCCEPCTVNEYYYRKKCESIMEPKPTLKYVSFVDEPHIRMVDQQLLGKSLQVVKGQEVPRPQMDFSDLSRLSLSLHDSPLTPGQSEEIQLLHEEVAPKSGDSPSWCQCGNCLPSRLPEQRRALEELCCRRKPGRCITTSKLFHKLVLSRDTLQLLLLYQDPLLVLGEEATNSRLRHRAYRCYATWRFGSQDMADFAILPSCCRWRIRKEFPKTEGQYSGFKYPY
Experimental: To test the suitability of the P2X7 gene as a reporter for high-throughput screening for repression domains, mouse Neuro-2A cells (expressing P2X7) were transiently transfected with a plasmid expressing a zinc finger DNA-binding domain targeted to the P2X7 gene (ZFP #5493) linked to a KOX1 repression domain. Control Neuro-2A cells were transfected with a vector lacking both library sequences and ZFP-encoding sequences (i.e., empty vector). Cells were treated for 10 minutes with different concentrations of BzATP (ranging from 0 to 1 mM), and EtBr was then added to a final concentration of 10 μM. After 20 minutes, cells were harvested by centrifugation, washed in PBS and analyzed by FACS.

P2X7 [2] = target: T1, P2X7; assay: BzATP-induced death of Neuro-2A cells
Experimental: To test this selection method, Neuro-2A cells were transiently transfected with empty vector (see Example 3 supra) or with a plasmid expressing a KOX1 repressor domain linked to the P2X7-targeted zinc finger binding domain ZFP #5493. 48 hours after transfection, cells were detached from the plate with Trypsin-EDTA, collected by centrifugation and resuspended in HKS assay buffer (125 mM KC1, 1 mM EDTA, 5 mM glucose, 20 mM HEPES, pH 7.4 adjusted with KOH). Resuspended cells were mixed with BzATP (final concentrations ranging from 0 to 1 mM) and plated onto 6 well plates (1×10^5 cells/well in 1 ml HKS). After a 2h incubation at 37° C. in a cell incubator, cells were washed with PBS, and growth medium (minimal essential medium with Earle's salts and non-essential amino acids, adjusted to contain 2 mM L-glutamine, 1.5 g/L Na bicarbonate, 1.0 mM Na pyruvate and 10% fetal bovine serum) was added to plates.

P2X7 [3] = target: T1, P2X7; assay: BzATP-induced YO-PRO-1 uptake in Neuro-2A cells by flow cytometry; details: 0.2 mM BzATP, FIG. 1 left panel
Experimental: ZFP/KOX-1-expressing cells were also assayed for P2X7 activity by measuring their ability to take up the DNA-binding dye YO-PRO-1, as follows. Seven days after the initial BzATP treatment, pools of clones containing 2-5×10^5 cells were incubated with 0.2 mM BzATP for 10 minutes in HKS Buffer (125 mM KCl, 1 mM EDTA, 5 mM glucose, 20 mM HEPES-KOH, pH 7.4). YO-PRO-1 (Molecular Probes, Inc., Eugene, Oreg.) was added to a final concentration of 5 μM. After an additional 25 min incubation in the presence of the dye, the cells were washed with PBS, collected by centrifugation, resuspended in PBS, and analyzed by FACS on a Beckman-Coulter EPICS XL flow cytometer.

- EtBr accumulation at higher concentrations of BzATP (P2X7 [1]; BzATP above 0.04 mM, range tested up to 1 mM): induced significant accumulation of EtBr
- YO-PRO-1 uptake by control uninfected cells in the presence of BzATP (P2X7 [3]): substantial amounts of YO-PRO-1
Substance: benzoylbenzoyl ATP [BzATP]
- EtBr uptake at low concentrations of BzATP (P2X7 [1]; BzATP up to 0.04 mM): did not induce significant uptake of EtBr
- cell death at relatively low concentrations of BzATP (P2X7 [2]; BzATP >20 μM, cells transfected with either empty vector or the ZFP-KOX construct): some death of cells
- survival of cells transfected with empty vector (P2X7 [2]; BzATP concentrations >100 μM): almost no survival
